Reference: patent publication US8288145B2, “Medium supplement for virus production” (AVIR Green Hills Biotechnology, priority 2006, dated 2012)
Where “and” joins values, the source holds several entries; their conditions need not be identical. Identical values can stand only once.

Tests used:
[1] = system: Enzephalomyocarditis virus RNA; settings: Borden E. et al. 1979, 1981; cited from earlier work
SV40 virus DNA = settings: Borden E. et al. 1979, 1981; cited from earlier work
[2] = system: A/New Caledonia/20/99 (H1N1)-like ΔNS1 virus; assay type: cell-based, influenza A virus
[3] = system: B/Vienna/32/2006 (B/Malaysia/2506/2004-like); assay type: cell-based, influenza B
[4] = system: A/Wisconsin/67/2005 (H3N2)-like virus; assay type: cell-based, influenza A virus
[5] = system: A/New Caledonia/20/99 (H1N1); assay type: cell-based, influenza A virus
influenza B virus = assay type: cell-based
[6] = system: A/Vienna/28/2006 (H3N2) (A/Wisconsin/67/2005-like); assay type: cell-based, influenza A virus

Structure (SMILES) | infectivity of viral RNA [1] | infectivity of viral DNA (SV40 virus DNA) | increase of sensitivity (titre) of TCID50 titration [2] [log] | titre of B virus in the presence of amphotericin B [3] | cytopathic effect of transfectant virus [4] | titre of transfectant virus [4] | less virus obtained when no amphotericin B is added [5] [log] | clinical samples positive for virus isolation (influenza B virus) | higher virus titre if grown in the presence of amphotericin B [6] [log]
COC(=O)[C@H]1[C@@H]2C[C@@H](O[C@@H]3O[C@H](C)[C@@H](O)[C@H](N)[C@@H]3O)/C=C/C=C/C=C/C=C/C=C/C=C/C=C/[C@H](C)[C@@H](O)[C@@H](C)[C@H](C)OC(=O)C[C@H](O)C[C@H](O)CC[C@@H](O)[C@H](O)C[C@H](O)C[C@](O)(C[C@@H]1O)O2 [Amphotericin B methyl ester] | increase the infectivity | increase the infectivity | – | – | – | – | – | – | –
C[C@@H]1[C@H](O)[C@@H](C)/C=C/C=C/C=C/C=C/C=C/C=C/C=C/[C@H](O[C@@H]2O[C@H](C)[C@@H](O)[C@H](N)[C@@H]2O)C[C@@H]2O[C@](O)(C[C@@H](O)C[C@@H](O)[C@H](O)CC[C@@H](O)C[C@@H](O)CC(=O)O[C@H]1C)C[C@H](O)[C@H]2C(=O)O [amphotericin B] | – | – | ~1 | more than 1E+08 pfu/ml | clear cytopathic effect | 2E+04 TCID50/ml and 2.0E+04 TCID50/ml | 1 | 9 | ≥ 1
